These results are taken from ChEMBL document CHEMBL3879908, “Pyrrolidinone carboxamide derivatives” (2014).

Structures are written as SMILES.

Broadly, the IC50 is the concentration needed to halve the response being measured. Read a low IC50 as higher potency.

This experiment addresses T1, Chemerin-like receptor 1 (Homo sapiens, UniProt Q99788).
T1 sequence (Q99788 whole entry): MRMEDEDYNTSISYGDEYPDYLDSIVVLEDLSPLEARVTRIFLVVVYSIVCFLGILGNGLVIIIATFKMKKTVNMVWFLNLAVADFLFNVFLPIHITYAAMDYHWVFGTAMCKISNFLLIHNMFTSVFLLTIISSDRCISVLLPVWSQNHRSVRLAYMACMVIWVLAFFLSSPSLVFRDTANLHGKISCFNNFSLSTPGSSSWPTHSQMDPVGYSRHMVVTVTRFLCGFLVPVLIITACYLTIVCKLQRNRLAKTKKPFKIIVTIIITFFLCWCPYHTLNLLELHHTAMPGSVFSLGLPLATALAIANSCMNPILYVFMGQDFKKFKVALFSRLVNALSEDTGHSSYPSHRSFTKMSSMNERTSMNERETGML
The experiment can be described thus: Displacement of [125I]-chemerin from ChemR23 (unknown origin) transfected in mouse BaF3 cells after 3 hrs by scintillation counting method. Format: cell-based. Background: In a radioligand displacement assay an active substance lowers the binding of a labelled ligand.
Compound `CCCN(CC)C[C@@]1(C(=O)Nc2cc(C(F)(F)F)cc(C(F)(F)F)c2)CN(c2c(C)cccc2C)C(=O)[C@H]1C` returned an IC50 of at most 30 nM. Then `Cc1cccc(C)c1N1CC2(C(=O)Nc3cc(C(F)(F)F)cc(C(F)(F)F)c3)CCCCC2C1=O` (centres undefined), with 30 to 300 nM. Then `O=C(Nc1cc(C(F)(F)F)cc(C(F)(F)F)c1)C1CC(=O)N(c2ccccc2)C1` (centres undefined), with 300 to 6000 nM; and `CCc1cccc(C)c1N1CC(C(=O)Nc2cccc(C(F)(F)F)c2)CC1=O` (centres undefined), with 300 to 6000 nM. Then `CCN(CC)C[C@@]1(C(=O)Nc2cc(C3CC3)cc(C(F)(F)F)c2)CN(c2c(C)cccc2C)C(=O)[C@H]1C`, with at most 30 nM. `Cc1ccc(N2CC(C(=O)Nc3cc(C(F)(F)F)cc(C(F)(F)F)c3)CC2=O)c(C)c1` (centres undefined): the IC50 was in the range of 30 to 300 nM.

For `Cc1cccc(C)c1N1CC(CC2CCN(Cc3ccccc3)C2)(C(=O)Nc2cc(C(F)(F)F)cc(C(F)(F)F)c2)CC1=O` (centres undefined), the IC50 is at most 30 nM. Then `Cc1cccc(C)c1N1C[C@@](CN(C)C(C)(C)CO)(C(=O)Nc2cc(C(F)(F)F)cc(C(F)(F)F)c2)[C@H](C)C1=O`, with 30 to 300 nM.

As for `Cc1cccc(C)c1N1CC2(C(=O)Nc3cc(C(F)(F)F)cc(C(F)(F)F)c3)COC=CC2C1=O` (centres undefined), the IC50 is at most 30 nM. Consider `Cc1cccc(S(C)(=O)=O)c1N1CC(C(=O)Nc2cc(C(F)(F)F)cc(C(F)(F)F)c2)CC1=O` (centres undefined), for which the IC50 fell in the range of 300 to 6000 nM.

In turn, `Cc1cccc(C)c1N1CC(C(=O)Nc2cc(F)cc(F)c2)CC1=O` (centres undefined) came in with an IC50 of 300 to 6000 nM. `Cc1cccc(C)c1N1C[C@@](CN2CCC(F)(F)CC2)(C(=O)Nc2cc(Cl)cc(C(F)(F)F)c2)[C@H](C)C1=O` had an IC50 of 30 to 300 nM. Then `Cc1cccc(C)c1N1CC2(C(=O)Nc3cc(C(F)(F)F)cc(C(F)(F)F)c3)C[C@@H](F)CC2C1=O` (some centres undefined), with 30 to 300 nM. Then `Cc1cccc(C)c1N1C[C@@](CN(C)C2CCC2)(C(=O)Nc2cc(OC(C)C)cc(C(F)(F)F)c2)[C@H](C)C1=O`, with 30 to 300 nM; and `Cc1cccc(C)c1N1CC(C)(C(=O)Nc2cc(C(F)(F)F)cc(C(F)(F)F)c2)CC1=O` (centres undefined), with at most 30 nM.

Consider `CC[C@@]1(C(=O)Nc2cc(CN3CCCC3C(F)(F)F)cc(C(F)(F)F)c2)CN(c2c(C)cccc2C)C(=O)[C@H]1C` (some centres undefined), for which the IC50 is at most 30 nM. On to `CCC1(C(=O)Nc2cc(C(F)(F)F)cc(C(F)(F)F)c2)CC(=O)N(c2c(C)cccc2C)C1` (centres undefined), for which the IC50 is at most 30 nM. In turn, `Cc1cccc(C)c1N1C[C@@](CN(C)C(C)C)(C(=O)Nc2cc(C#N)cc(C(F)(F)F)c2)[C@H](C)C1=O` gave an IC50 of at most 30 nM. Then `COc1cc(NC(=O)C2CC(=O)N(c3c(C)cccc3C)C2)cc(C(F)(F)F)c1` (centres undefined), with 30 to 300 nM; and `COCCN(C)C[C@@]1(C(=O)Nc2cc(C(F)(F)F)cc(C(F)(F)F)c2)CN(c2c(C)cccc2C)C(=O)[C@H]1C`, with 30 to 300 nM.

Regarding `Cc1cccc(C)c1N1C[C@@](CN(C)CC2CC2)(C(=O)Nc2cc(C(F)(F)F)cc(C(F)(F)F)c2)[C@H](C)C1=O`, the IC50 was at most 30 nM. `CC[C@@]1(C(=O)Nc2cc(F)cc(C(F)(F)F)c2)CN(c2c(C)cccc2C)C(=O)[C@H]1C` registered an IC50 of 30 to 300 nM. In the case of `Cc1ccccc1N1CC(C(=O)Nc2cc(C3CC3)cc(C(F)(F)F)c2)(C(C)C)CC1=O` (centres undefined), the IC50 was in the range of 30 to 300 nM. Then `Cc1cccc(C)c1N1C[C@](C(=O)Nc2cc(C(F)(F)F)cc(C(F)(F)F)c2)(C2CCOCC2)[C@H](C)C1=O`, with at most 30 nM. The compound `CC[C@@]1(C(=O)Nc2cc(CN3CCOCC3)cc(C(F)(F)F)c2)CN(c2c(C)cccc2C)C(=O)[C@H]1C` showed an IC50 of 300 to 6000 nM. In turn, `CC(C)C1(C(=O)Nc2cc(C3CC3)cc(C(F)(F)F)c2)CC(=O)N(c2ccccc2Cl)C1` (centres undefined) registered an IC50 of 30 to 300 nM. Then `Cc1cccc(C)c1N1CC(C(=O)Nc2cc(Cl)cc(Cl)c2)CC1=O` (centres undefined), with 30 to 300 nM; and `CC[C@@]1(C(=O)Nc2ccc(C)c(C(F)(F)F)c2)CN(c2c(C)cccc2C)C(=O)[C@H]1C`, with 30 to 300 nM. In turn, `Cc1cccc(C)c1N1C[C@@](CN2CCC(F)(F)CC2)(C(=O)Nc2cc(F)cc(C(F)(F)F)c2)[C@H](C)C1=O` registered an IC50 of 30 to 300 nM. Then `Cc1cccc(C)c1N1C[C@@](CN2CCC(F)CC2)(C(=O)Nc2cc(C#N)cc(C(F)(F)F)c2)[C@H](C)C1=O`, with at most 30 nM; and `Cc1cccc(C)c1N1C[C@@](CN2CCOCC2)(C(=O)Nc2cc(C(F)(F)F)cc(C(F)(F)F)c2)[C@H](C)C1=O`, with 300 to 6000 nM; and `Cc1cc(C)n(C2(C(=O)Nc3cc(C(F)(F)F)cc(C(F)(F)F)c3)CC(=O)N(c3c(C)cccc3C)C2)n1` (centres undefined), with at most 30 nM. Then `CC[C@]1(C(=O)Nc2cc(Cl)cc(C(F)(F)F)c2)CC(=O)N(c2c(C)cccc2C)C1`, with 30 to 300 nM. Then `Cc1cccc(C2CC2)c1N1CC(C(=O)Nc2cc(C(F)(F)F)cc(C(F)(F)F)c2)CC1=O` (centres undefined), with at most 30 nM.

For `Cc1cccc(C)c1N1CC(O)(C(=O)Nc2cc(C(F)(F)F)cc(C(F)(F)F)c2)CC1=O` (centres undefined), the IC50 fell in the range of 30 to 300 nM. Then `CCc1cccc(C)c1N1CC(C(=O)Nc2cc(C(F)(F)F)cc(C(F)(F)F)c2)CC1=O` (centres undefined), with at most 30 nM; and `Cc1ccccc1N1CC(C(=O)Nc2cc(C(F)(F)F)cc(C(F)(F)F)c2)(C(C)C)CC1=O` (centres undefined), with at most 30 nM. Then `Cc1cccc(C)c1N1CC(C(=O)Nc2cc(C#N)cc(C(F)(F)F)c2)CC1=O` (centres undefined), with 30 to 300 nM. Then `CCN(CC)C[C@@]1(C(=O)Nc2cc(C(F)(F)F)cc(C(F)(F)F)c2)CN(c2c(C)cccc2C)C(=O)[C@H]1C`, with 300 to 6000 nM; and `Cc1cccc(C)c1N1CC(C(=O)Nc2cc(C(F)(F)F)cc(C(F)(F)F)c2)(C(C)O)CC1=O` (centres undefined), with 30 to 300 nM; and `Cc1cccc(C)c1N1C[C@](C(=O)Nc2cc(C(F)(F)F)cc(C(F)(F)F)c2)(N(C)C)CC1=O`, with at most 30 nM. As to `Cc1cccc(CO)c1N1CC(C(=O)Nc2cc(C(F)(F)F)cc(C(F)(F)F)c2)(C(C)C)CC1=O` (centres undefined), the IC50 was 30 to 300 nM. For `Cc1cccc(C)c1N1C[C@@](CC(C)C)(C(=O)Nc2cc(C(F)(F)F)cc(C(F)(F)F)c2)[C@H](C)C1=O`, the IC50 is at most 30 nM.

In turn, `CC[C@@]1(C(=O)Nc2cc(Cl)cc(C(F)(F)F)c2)CN(c2c(C)cccc2C)C(=O)[C@H]1C` yielded an IC50 of at most 30 nM.

On to `CCOc1cc(NC(=O)[C@]2(CC)CN(c3c(C)cccc3C)C(=O)[C@H]2C)cc(C(F)(F)F)c1`, for which the IC50 is 30 to 300 nM. Then `Cc1cccc(C)c1N1CC2(C(=O)Nc3cc(C(F)(F)F)cc(C(F)(F)F)c3)COCCC2C1=O` (centres undefined), with 300 to 6000 nM. For `COC1CCN(C[C@@]2(C(=O)Nc3cc(C#N)cc(C(F)(F)F)c3)CN(c3c(C)cccc3C)C(=O)[C@H]2C)CC1`, the IC50 lay within 30 to 300 nM. Then `CC(C)c1ccccc1N1CC(C(=O)Nc2cc(C(F)(F)F)cc(C(F)(F)F)c2)CC1=O` (centres undefined), with 30 to 300 nM; and `Cc1cccc(C)c1N1C[C@]2(C(=O)Nc3cc(C(F)(F)F)cc(C(F)(F)F)c3)OCC[C@@H]2C1=O`, with 30 to 300 nM; and `Cc1cccc(C)c1N1CC2(C(=O)Nc3cc(C(F)(F)F)cc(C(F)(F)F)c3)CC(F)(F)CC2C1=O` (centres undefined), with at most 30 nM. Then `Cc1cccc(C)c1N1CC(CCCO)(C(=O)Nc2cc(C(F)(F)F)cc(C(F)(F)F)c2)CC1=O` (centres undefined), with 30 to 300 nM; and `Cc1cccc(C)c1N1C[C@@](CN2CCC(F)CC2)(C(=O)Nc2cc(C(F)(F)F)cc(C(F)(F)F)c2)[C@H](C)C1=O`, with 30 to 300 nM; and `Cc1cccc(C)c1N1CC2(C(=O)Nc3cc(C(F)(F)F)cc(C(F)(F)F)c3)CC(O)CC2C1=O` (centres undefined), with 30 to 300 nM. Then `CC(C)C1(C(=O)Nc2cc(C(F)(F)F)cc(C(F)(F)F)c2)CC(=O)N(c2ccccc2CN2CCOCC2)C1` (centres undefined), with 300 to 6000 nM; and `CO[C@H]1CC2C(=O)N(c3c(C)cccc3C)CC2(C(=O)Nc2cc(C(F)(F)F)cc(C(F)(F)F)c2)C1` (some centres undefined), with at most 30 nM. In the case of `Cc1cccc(C)c1N1C[C@](C(=O)Nc2cc(C(F)(F)F)cc(C(F)(F)F)c2)(C2CCOCC2)[C@@H](C)C1=O`, the IC50 fell in the range of 30 to 300 nM. Then `Cc1cccc(C)c1N1CC(C(=O)Nc2ccc(Cl)c(Cl)c2)CC1=O` (centres undefined), with 300 to 6000 nM; and `COc1cccc(C)c1N1CC(C(=O)Nc2cc(F)cc(F)c2)CC1=O` (centres undefined), with 30 to 300 nM. Then `Cc1cccc(C)c1N1CC(C(=O)Nc2cc(C(F)(F)F)cc(C(F)(F)F)c2)(C2CCC2)CC1=O` (centres undefined), with at most 30 nM; and `Cc1cccc(C)c1N1C[C@](C(=O)Nc2cc(NC(C)C)cc(C(F)(F)F)c2)(C(C)C)[C@H](C)C1=O`, with 30 to 300 nM. Then `Cc1cccc(C)c1N1CC(C(=O)Nc2cc(C(F)(F)F)cc(C(F)(F)F)c2)(C2CCNC2)CC1=O` (centres undefined), with 300 to 6000 nM.

`C=C(C)CC1(C(=O)Nc2cc(C(F)(F)F)cc(C(F)(F)F)c2)CC(=O)N(c2c(C)cccc2C)C1` (centres undefined) gave an IC50 of at most 30 nM. Compound `Cc1cccc(C)c1N1C[C@@](CN2CCCC2)(C(=O)Nc2cc(C(F)(F)F)cc(C(F)(F)F)c2)[C@H](C)C1=O` displayed an IC50 of 300 to 6000 nM. Then `Cc1cccc(C)c1N1CC2(C(=O)Nc3cc(C(F)(F)F)cc(C(F)(F)F)c3)C[C@H](F)CC2C1=O` (some centres undefined), with at most 30 nM. Then `Cc1cccc(C)c1N1C[C@@](CN(C)CC(C)C)(C(=O)Nc2cc(C(F)(F)F)cc(C(F)(F)F)c2)[C@H](C)C1=O`, with at most 30 nM; and `COCC1(C(=O)Nc2cc(C(F)(F)F)cc(C(F)(F)F)c2)CC(=O)N(c2c(C)cccc2C)C1` (centres undefined), with at most 30 nM. Take `CCN(CC1CC1)C[C@@]1(C(=O)Nc2cc(C(F)(F)F)cc(C(F)(F)F)c2)CN(c2c(C)cccc2C)C(=O)[C@H]1C`: the IC50 was at most 30 nM. The compound `COC(=O)c1cc(NC(=O)C2CC(=O)N(c3c(C)cccc3C)C2)cc(C(F)(F)F)c1` (centres undefined) came in with an IC50 of 30 to 300 nM. Then `Cc1cccc(Br)c1N1CC(C(=O)Nc2cc(C(F)(F)F)cc(C(F)(F)F)c2)(C(C)C)CC1=O` (centres undefined), with at most 30 nM.
